Values quoted from earlier work as cited in US20070009589A1, “EXTENDED RELEASE COMPOSITIONS” (priority 2005, published 2007).

Key:
[1] = in water

Row | water solubility [1] | Log P | Compound
1 | low water solubility | 2.48 | COCCc1ccc(OCC(O)CNC(C)C)cc1 (stereo not drawn) [Metoprolol]
2 | freely soluble in water |  | COCCc1ccc(OCC(O)CNC(C)C)cc1 (racemic) [Metoprolol succinate, (±)-1-(isopropylamino)-3-[p-(2-methoxyethyl)phenoxy]-2-propanol succinate (2:1)]
